{"source": "paper PMC9653409", "about": "“Generative deep learning enables the discovery of a potent and selective RIPK1 inhibitor” (Nature Communications, 2022)", "assay_in_all_cases": "Kinase inhibitory activity profiling of RI-962@10 µM (406 kinases, Eurofins)", "type_in_all_cases": "biochemical", "key": {"[1]": {"biological_target": "panel of human kinases (kinase named in endpoint) (Homo sapiens, UniProt P29376)", "settings": "10 µM; read-out: Activity (%), LTK(h)", "procedure,_shortened": "(§1)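 Radiometric filter-binding kinase assays: enzyme preincubated 15 min with compound in 8 mM MOPS pH 7.0, 0.2 mM EDTA, 250 μM peptide substrate, 10 mM magnesium acetate, 10 μM [γ-33P]-ATP. Reaction started with Mg/ATP, run 40 min at room temperature, stopped with phosphoric acid; 33P incorporation read by scintillation counting. Other kinases by similar protocols.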"}, "[2]": {"biological_target": "panel of human kinases (kinase named in endpoint) (Homo sapiens, UniProt Q52WX2)", "settings": "10 µM; read-out: Activity (%), SBK1(h)", "procedure,_shortened": "as §1"}, "[3]": {"biological_target": "panel of human kinases (kinase named in endpoint) (Homo sapiens, UniProt Q9P289)", "sequence (Q9P289 whole entry)": "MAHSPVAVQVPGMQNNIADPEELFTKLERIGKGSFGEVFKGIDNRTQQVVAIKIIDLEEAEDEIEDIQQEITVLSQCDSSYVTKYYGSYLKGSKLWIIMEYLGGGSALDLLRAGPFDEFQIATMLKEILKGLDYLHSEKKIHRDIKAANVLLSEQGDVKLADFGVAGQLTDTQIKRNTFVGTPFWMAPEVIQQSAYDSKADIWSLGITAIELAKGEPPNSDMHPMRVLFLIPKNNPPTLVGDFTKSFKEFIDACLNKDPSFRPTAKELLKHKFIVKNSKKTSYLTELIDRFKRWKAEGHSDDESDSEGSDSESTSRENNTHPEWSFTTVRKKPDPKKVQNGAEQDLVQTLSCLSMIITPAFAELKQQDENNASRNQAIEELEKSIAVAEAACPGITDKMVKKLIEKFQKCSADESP", "settings": "10 µM; read-out: Activity (%), MST4(h)", "procedure,_shortened": "as §1"}, "[4]": {"biological_target": "panel of human kinases (kinase named in endpoint) (Homo sapiens, UniProt Q6P2M8)", "settings": "10 µM; read-out: Activity (%), CaMKIß(h)", "procedure,_shortened": "as §1"}, "[5]": {"biological_target": "panel of human kinases (kinase named in endpoint) (Homo sapiens, UniProt Q16816)", "settings": "10 µM; read-out: Activity (%), PhKγ1(h)", "procedure,_shortened": "as §1"}, "[6]": {"biological_target": "panel of human kinases (kinase named in endpoint) (Homo sapiens, UniProt Q8WTQ7)", "settings": "10 µM; read-out: Activity (%), GRK7(h)", "procedure,_shortened": "as §1"}, "[7]": {"biological_target": "panel of human kinases (kinase named in endpoint) (Homo sapiens, UniProt P49761)", "settings": "10 µM; read-out: Activity (%), CLK3(h)", "procedure,_shortened": "as §1"}, "[8]": {"biological_target": "panel of human kinases (kinase named in endpoint) (Homo sapiens, UniProt Q92918)", "settings": "10 µM; read-out: Activity (%), HPK1(h)", "procedure,_shortened": "as §1"}, "[9]": {"biological_target": "panel of human kinases (kinase named in endpoint) (Homo sapiens, UniProt P23443)", "settings": "10 µM; read-out: Activity (%), p70S6K(h)", "procedure,_shortened": "as §1"}, "[10]": {"biological_target": "panel of human kinases (kinase named in endpoint) (Homo sapiens, UniProt O75676)", "settings": "10 µM; read-out: Activity (%), MSK2(h)", "procedure,_shortened": "as §1"}, "[11]": {"biological_target": "panel of human kinases (kinase named in endpoint) (Homo sapiens, UniProt Q02763)", "sequence (Q02763 23-1124)": "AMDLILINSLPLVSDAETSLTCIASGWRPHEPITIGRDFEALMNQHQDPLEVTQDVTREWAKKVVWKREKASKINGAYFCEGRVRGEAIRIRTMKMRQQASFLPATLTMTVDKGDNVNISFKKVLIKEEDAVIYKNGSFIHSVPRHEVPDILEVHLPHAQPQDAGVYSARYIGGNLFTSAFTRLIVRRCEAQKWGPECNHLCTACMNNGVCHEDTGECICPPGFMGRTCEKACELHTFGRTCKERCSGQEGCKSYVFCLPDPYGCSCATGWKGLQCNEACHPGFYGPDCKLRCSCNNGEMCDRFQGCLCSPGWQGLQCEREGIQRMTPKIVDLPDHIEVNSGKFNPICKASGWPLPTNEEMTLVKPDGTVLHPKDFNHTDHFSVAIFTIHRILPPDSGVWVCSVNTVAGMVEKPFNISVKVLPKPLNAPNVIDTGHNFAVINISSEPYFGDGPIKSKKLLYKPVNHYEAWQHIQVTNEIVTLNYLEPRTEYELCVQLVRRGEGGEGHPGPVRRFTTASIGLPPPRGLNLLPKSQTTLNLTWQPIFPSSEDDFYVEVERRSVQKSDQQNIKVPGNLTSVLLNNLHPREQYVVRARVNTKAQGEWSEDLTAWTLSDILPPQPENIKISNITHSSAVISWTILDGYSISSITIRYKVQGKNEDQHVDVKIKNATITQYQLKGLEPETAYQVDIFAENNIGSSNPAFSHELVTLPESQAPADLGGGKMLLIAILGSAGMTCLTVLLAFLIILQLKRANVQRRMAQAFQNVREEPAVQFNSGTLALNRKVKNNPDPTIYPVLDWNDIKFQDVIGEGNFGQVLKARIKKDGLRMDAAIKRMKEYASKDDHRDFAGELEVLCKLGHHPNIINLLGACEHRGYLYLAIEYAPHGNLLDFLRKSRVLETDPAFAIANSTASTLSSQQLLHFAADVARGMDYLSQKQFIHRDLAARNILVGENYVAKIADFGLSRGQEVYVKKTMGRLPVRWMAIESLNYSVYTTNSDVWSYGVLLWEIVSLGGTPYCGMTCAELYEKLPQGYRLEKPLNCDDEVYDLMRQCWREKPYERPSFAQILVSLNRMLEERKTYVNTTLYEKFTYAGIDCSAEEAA", "settings": "10 µM; read-out: Activity (%), Tie2 (h)", "procedure,_shortened": "as §1"}, "[12]": {"biological_target": "panel of human kinases (kinase named in endpoint) (Homo sapiens, UniProt P07332)", "sequence (P07332 whole entry)": "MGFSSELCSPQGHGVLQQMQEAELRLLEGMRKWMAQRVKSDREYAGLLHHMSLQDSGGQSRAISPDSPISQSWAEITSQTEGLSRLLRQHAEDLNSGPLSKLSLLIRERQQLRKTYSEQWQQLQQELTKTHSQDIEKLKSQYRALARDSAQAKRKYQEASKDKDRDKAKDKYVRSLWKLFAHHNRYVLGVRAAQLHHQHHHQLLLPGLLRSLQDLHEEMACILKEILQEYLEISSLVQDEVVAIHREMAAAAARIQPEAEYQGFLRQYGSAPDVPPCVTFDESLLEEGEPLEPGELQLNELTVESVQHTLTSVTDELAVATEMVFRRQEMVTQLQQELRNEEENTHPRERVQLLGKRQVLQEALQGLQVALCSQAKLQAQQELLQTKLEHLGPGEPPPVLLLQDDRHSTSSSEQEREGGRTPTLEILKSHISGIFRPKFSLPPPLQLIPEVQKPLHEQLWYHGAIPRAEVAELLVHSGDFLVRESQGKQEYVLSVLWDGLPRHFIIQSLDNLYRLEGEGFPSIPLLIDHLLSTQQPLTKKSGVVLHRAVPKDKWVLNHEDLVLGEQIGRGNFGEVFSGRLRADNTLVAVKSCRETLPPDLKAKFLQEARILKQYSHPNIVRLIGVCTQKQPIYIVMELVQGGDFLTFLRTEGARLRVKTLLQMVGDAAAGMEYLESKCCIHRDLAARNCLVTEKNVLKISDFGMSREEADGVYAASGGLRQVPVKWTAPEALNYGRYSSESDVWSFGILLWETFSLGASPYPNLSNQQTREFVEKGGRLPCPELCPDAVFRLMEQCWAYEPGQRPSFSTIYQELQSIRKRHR", "settings": "10 µM; read-out: Activity (%), Fes(h)", "procedure,_shortened": "as §1"}, "[13]": {"biological_target": "panel of human kinases (kinase named in endpoint) (Homo sapiens, UniProt P41240)", "settings": "10 µM; read-out: Activity (%), CSK(h)", "procedure,_shortened": "as §1"}, "[14]": {"biological_target": "panel of human kinases (kinase named in endpoint) (Homo sapiens, UniProt P11362, V561M)", "sequence (P11362 22-822 V561M)": "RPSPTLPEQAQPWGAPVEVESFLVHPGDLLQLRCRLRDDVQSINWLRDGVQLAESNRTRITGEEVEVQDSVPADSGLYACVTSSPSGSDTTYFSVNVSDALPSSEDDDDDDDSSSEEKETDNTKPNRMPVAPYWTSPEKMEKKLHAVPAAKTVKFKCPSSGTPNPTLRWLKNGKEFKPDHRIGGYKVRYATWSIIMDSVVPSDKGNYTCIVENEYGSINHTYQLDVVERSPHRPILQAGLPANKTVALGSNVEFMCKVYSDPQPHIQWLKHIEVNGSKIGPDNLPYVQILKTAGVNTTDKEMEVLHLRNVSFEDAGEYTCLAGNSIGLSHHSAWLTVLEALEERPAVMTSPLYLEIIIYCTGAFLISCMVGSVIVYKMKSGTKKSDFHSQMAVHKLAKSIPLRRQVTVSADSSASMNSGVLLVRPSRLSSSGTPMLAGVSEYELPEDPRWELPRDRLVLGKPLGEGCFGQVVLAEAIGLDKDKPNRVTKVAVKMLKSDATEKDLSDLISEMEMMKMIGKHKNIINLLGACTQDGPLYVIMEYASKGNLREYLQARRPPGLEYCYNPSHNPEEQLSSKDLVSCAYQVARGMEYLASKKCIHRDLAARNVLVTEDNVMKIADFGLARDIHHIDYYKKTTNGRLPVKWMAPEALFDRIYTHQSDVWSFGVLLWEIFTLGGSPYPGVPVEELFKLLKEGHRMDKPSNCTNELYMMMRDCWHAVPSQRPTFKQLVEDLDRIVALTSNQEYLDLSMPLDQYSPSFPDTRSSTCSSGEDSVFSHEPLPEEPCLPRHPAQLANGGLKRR", "settings": "10 µM; read-out: Activity (%), FGFR1(V561M)(h)", "procedure,_shortened": "as §1"}, "[15]": {"biological_target": "panel of human kinases (kinase named in endpoint) (Homo sapiens, UniProt P41743)", "sequence (P41743 whole entry)": "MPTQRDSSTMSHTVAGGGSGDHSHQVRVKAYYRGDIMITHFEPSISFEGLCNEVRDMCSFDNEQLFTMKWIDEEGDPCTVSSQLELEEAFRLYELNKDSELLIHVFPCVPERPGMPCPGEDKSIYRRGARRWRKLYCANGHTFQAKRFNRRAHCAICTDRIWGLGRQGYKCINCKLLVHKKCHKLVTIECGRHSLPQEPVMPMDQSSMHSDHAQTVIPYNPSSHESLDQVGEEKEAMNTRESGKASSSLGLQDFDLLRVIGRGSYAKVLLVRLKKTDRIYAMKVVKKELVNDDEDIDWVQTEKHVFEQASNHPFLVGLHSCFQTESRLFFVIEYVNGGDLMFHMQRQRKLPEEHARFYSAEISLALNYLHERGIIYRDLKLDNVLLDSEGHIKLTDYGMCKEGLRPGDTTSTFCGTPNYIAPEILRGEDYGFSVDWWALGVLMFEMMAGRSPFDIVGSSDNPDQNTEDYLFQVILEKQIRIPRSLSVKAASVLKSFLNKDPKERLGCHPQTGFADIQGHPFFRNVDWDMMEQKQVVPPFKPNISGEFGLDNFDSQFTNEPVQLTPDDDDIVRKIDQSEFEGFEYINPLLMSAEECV", "settings": "10 µM; read-out: Activity (%), PKCι(h)", "procedure,_shortened": "as §1"}, "[16]": {"biological_target": "panel of human kinases (kinase named in endpoint) (Homo sapiens, UniProt Q96L34)", "sequence (Q96L34 whole entry)": "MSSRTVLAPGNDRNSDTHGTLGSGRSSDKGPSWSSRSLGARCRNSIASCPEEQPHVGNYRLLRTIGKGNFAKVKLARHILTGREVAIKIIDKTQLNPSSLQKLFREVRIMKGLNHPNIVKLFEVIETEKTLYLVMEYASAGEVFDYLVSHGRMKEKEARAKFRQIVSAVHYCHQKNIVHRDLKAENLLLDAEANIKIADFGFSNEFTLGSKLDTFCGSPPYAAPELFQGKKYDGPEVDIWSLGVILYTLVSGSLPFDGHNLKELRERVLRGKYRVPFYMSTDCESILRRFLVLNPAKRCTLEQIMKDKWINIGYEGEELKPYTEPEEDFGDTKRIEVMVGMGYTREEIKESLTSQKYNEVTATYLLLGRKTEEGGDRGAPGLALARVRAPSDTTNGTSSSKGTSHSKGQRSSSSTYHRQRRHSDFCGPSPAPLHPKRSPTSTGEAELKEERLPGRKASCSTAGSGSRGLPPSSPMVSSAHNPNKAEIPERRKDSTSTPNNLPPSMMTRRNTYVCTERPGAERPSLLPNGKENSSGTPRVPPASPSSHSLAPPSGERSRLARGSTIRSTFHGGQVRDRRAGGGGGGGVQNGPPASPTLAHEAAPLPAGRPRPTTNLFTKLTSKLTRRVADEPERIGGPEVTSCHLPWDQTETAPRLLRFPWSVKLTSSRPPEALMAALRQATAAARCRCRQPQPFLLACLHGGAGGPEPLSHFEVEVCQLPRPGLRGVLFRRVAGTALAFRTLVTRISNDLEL", "settings": "10 µM; read-out: Activity (%), MARK4(h)", "procedure,_shortened": "as §1"}, "[17]": {"biological_target": "panel of human kinases (kinase named in endpoint) (Homo sapiens, UniProt P06239)", "sequence (P06239 whole entry)": "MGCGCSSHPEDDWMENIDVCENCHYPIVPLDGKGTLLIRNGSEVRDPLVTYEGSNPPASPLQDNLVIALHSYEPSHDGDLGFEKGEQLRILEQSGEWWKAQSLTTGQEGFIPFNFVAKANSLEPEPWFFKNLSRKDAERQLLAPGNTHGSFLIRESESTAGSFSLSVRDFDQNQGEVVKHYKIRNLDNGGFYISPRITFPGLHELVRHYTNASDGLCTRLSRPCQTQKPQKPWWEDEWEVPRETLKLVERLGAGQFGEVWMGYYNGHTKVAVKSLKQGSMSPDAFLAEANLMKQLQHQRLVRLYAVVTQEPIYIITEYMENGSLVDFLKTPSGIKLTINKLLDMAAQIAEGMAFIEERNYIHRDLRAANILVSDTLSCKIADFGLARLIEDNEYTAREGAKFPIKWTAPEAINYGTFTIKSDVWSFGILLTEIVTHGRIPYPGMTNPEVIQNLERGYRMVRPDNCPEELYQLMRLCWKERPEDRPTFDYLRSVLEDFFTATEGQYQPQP", "settings": "10 µM", "procedure,_shortened": "as §1"}, "[18]": {"biological_target": "panel of human kinases (kinase named in endpoint) (Homo sapiens, UniProt Q13555)", "settings": "10 µM; read-out: Activity (%), CaMKIIγ(h)", "procedure,_shortened": "as §1"}, "[19]": {"biological_target": "panel of human kinases (kinase named in endpoint) (Mus musculus, UniProt Q4JIM5)", "settings": "10 µM; read-out: Activity (%), Arg(m)", "procedure,_shortened": "as §1"}, "[20]": {"biological_target": "panel of human kinases (kinase named in endpoint) (Homo sapiens, UniProt Q9UM73)", "settings": "10 µM; read-out: Activity (%), ALK(h)", "procedure,_shortened": "as §1"}, "[21]": {"biological_target": "panel of human kinases (kinase named in endpoint) (Homo sapiens, UniProt Q12851)", "settings": "10 µM; read-out: Activity (%), GCK(h)", "procedure,_shortened": "as §1"}, "[22]": {"biological_target": "panel of human kinases (kinase named in endpoint) (Homo sapiens, UniProt Q13873)", "settings": "10 µM; read-out: Activity (%), BMPR2(h)", "procedure,_shortened": "as §1"}, "[23]": {"biological_target": "panel of human kinases (kinase named in endpoint) (Homo sapiens, UniProt Q13523)", "settings": "10 µM; read-out: Activity (%), PRP4(h)", "procedure,_shortened": "as §1"}, "[24]": {"biological_target": "panel of human kinases (kinase named in endpoint) (Homo sapiens, UniProt P49137)", "settings": "10 µM; read-out: Activity (%), MAPKAP-K2(h)", "procedure,_shortened": "as §1"}, "[25]": {"biological_target": "panel of human kinases (kinase named in endpoint) (Homo sapiens, UniProt Q04759)", "settings": "10 µM; read-out: Activity (%), PKCθ(h)", "procedure,_shortened": "as §1"}, "[26]": {"biological_target": "panel of human kinases (kinase named in endpoint) (Homo sapiens, UniProt P29317)", "settings": "10 µM; read-out: Activity (%), EphA2(h)", "procedure,_shortened": "as §1"}}, "note": "Where two headings read alike, the source gives them in different places."}
{"compound": "CC(C)C(=O)Nc1nc2cc(-c3ccc4c(c3)c(C(=O)NC(C)c3ccccc3)cn4C)ccn2n1", "note": "(stereo not drawn) [RI-962]", "values": [{"measurement": "activity at 10 µM", "setting": "[1]", "value": 100, "unit": "%"}, {"measurement": "activity at 10 µM", "setting": "[2]", "value": 112, "unit": "%"}, {"measurement": "activity at 10 µM", "setting": "[3]", "value": 119, "unit": "%"}, {"measurement": "activity at 10 µM", "setting": "[4]", "value": 100, "unit": "%"}, {"measurement": "activity at 10 µM", "setting": "[5]", "value": 98, "unit": "%"}, {"measurement": "activity at 10 µM", "setting": "[6]", "value": 60, "unit": "%"}, {"measurement": "activity at 10 µM", "setting": "[7]", "value": 94, "unit": "%"}, {"measurement": "activity at 10 µM", "setting": "[8]", "value": 92, "unit": "%"}, {"measurement": "activity at 10 µM", "setting": "[9]", "value": 106, "unit": "%"}, {"measurement": "activity at 10 µM", "setting": "[10]", "value": 94, "unit": "%"}, {"measurement": "activity at 10 µM", "setting": "[11]", "value": 90, "unit": "%"}, {"measurement": "activity at 10 µM", "setting": "[12]", "value": 99, "unit": "%"}, {"measurement": "activity at 10 µM", "setting": "[13]", "value": 76, "unit": "%"}, {"measurement": "activity at 10 µM", "setting": "[14]", "value": 99, "unit": "%"}, {"measurement": "activity at 10 µM", "setting": "[15]", "value": 97, "unit": "%"}, {"measurement": "activity at 10 µM", "setting": "[16]", "value": 102, "unit": "%"}, {"measurement": "activity at 10 µM", "setting": "[17]; read-out: Activity (%), Lck(h)", "value": 137, "unit": "%"}, {"measurement": "activity at 10 µM", "setting": "[17]; read-out: Activity (%), Lck(h) activated", "value": 81, "unit": "%"}, {"measurement": "activity at 10 µM", "setting": "[18]", "value": 93, "unit": "%"}, {"measurement": "activity at 10 µM", "setting": "[19]", "value": 90, "unit": "%"}, {"measurement": "activity at 10 µM", "setting": "[20]", "value": 68, "unit": "%"}, {"measurement": "activity at 10 µM", "setting": "[21]", "value": 83, "unit": "%"}, {"measurement": "activity at 10 µM", "setting": "[22]", "value": 105, "unit": "%"}, {"measurement": "activity at 10 µM", "setting": "[23]", "value": 88, "unit": "%"}, {"measurement": "activity at 10 µM", "setting": "[24]", "value": 97, "unit": "%"}, {"measurement": "activity at 10 µM", "setting": "[25]", "value": 131, "unit": "%"}, {"measurement": "activity at 10 µM", "setting": "[26]", "value": 96, "unit": "%"}]}
